Test results: patent US7423068B2, “Control of parasitic mites of honey bees” (The United States of America as represented by the …, priority 2001, dated 2008)
Where two headings read alike, the source gives them in different places.

Legend:
[1] = cited from earlier work
[2] = test system: free-running adult mites
Procedure: 2-Heptanone was tested for miticidal activity in two separate sets of bioassays. In the petri dish bioassays we exposed free-running adult mites to volatiles from 2-heptanone either in pure form or in an acrylic block dispenser (as described in a further experiment, below) and measured mortality over time. Mites were placed in petri dishes (5-10 mites/dish, 4 dishes per treatment and 4 dishes for controls) that were lined on the bottom with damp tissue paper covered with Parafilm®. Holes were punched in the Parafilm® using an insect pin to create a humid environment in the petri dish. A piece of filter paper the same size as the petri dish was placed on top of the Parafilm® sheet. In the first petri dish bioassay, 40 μl of pure 2-heptanone was placed on a piece of filter paper on the lid of the petri dish (treatment dishes). The Control dishes were set up as described above but nothing was added to the piece of filter paper fastened to the lid of the petri dish. The petri dishes were placed in separate incubators for treatments and Controls. Incubator temperatures were maintained at 33-34.4° C. […] In the second bioassay 0.1 g of a 30% concentration of 2-heptanone in acrylic block made as in Example 6 was placed in a plastic weighing boat in the center of petri dishes prepared as described above. Control petri dishes were prepared identically to those containing the acrylic block, but the weighing boat in the center of the dish was empty.
In another series of tests, 2-heptanone, 98+% (Sigrma-Aldrich); 3-heptanone (Fluka Chemika); 4-heptanone (Fluka Chemika); 2-hexanone; 2-octanone, 98% (Aldrich Chemical Co.); 1-heptanol (Fluka Chemika, 99.5% GC), and heptaldehyde, 95% (Aldrich Chemical Co.) were tested in petri dish bioassays wherein free-running adult mites were exposed to 40 μl of pure compound placed on filter paper as described above. The test conditions and Controls were as described above.
The test conditions and Controls were as described above.

[3] = 40 μl pure compound on filter paper, exposure time 1 hr, S.E. ± 0 unless noted
[4] = 40 μl pure compound on filter paper, exposure time 2 hrs, S.E. ± 0 unless noted

| Structure (SMILES) | Average % Mortality ± S.E. Treatment [2, 3] [%] | Average % Mortality ± S.E. Treatment [2, 4] [%] | % Mortality Treatment ([2]; in vivo) [%] | further results |
| --- | --- | --- | --- | --- |
| CCCC(=O)OCC [Ethyl Butyrate, Ethyl butyrate] | – | – | – | solubility in water [1]: about 150 parts water; Average % Mortality ± S.E. Treatment ([2]; in vivo): 81.2 ± 12.0% |
| CCC(C)=O [2-Butanone] | 87.5 ± 7.22 | 77.3 ± 15.6 | – | – |
| CCCCCCC(C)=O [2-Octanone] | – | – | 100 | – |
| CC(C)=O [Acetone] | 48 ± 8.65 | 81.2 ± 12.0 | – | solubility in water ([1]; in words): miscible with water |
| CCCC(=O)CCC [4-Heptanone] | – | – | 100 | – |
| CCCCC(=O)CC [3-Heptanone] | – | – | 100 | – |
| O=Cc1ccccc1 [Benzaldehyde] | 55 ± 12.6 | 100 | – | solubility in water [1]: about 350 parts water |
| CCCCCCC=O [Heptaldehyde] | – | – | 100 | – |
| CCCCC(C)=O [2-Hexanone] | – | – | – | % Mortality Treatment ([2]; 40 μl pure compound on filter paper, exposure time 1 hr): 100% |
| C=C(C)C1CC=C(C)CC1 (single isomer, unassigned; (+)) [d-Limonene, (+)-4-isopropenyl-1-methyl-1-cyclohexene] | 5.0 ± 5.0 | 55.0 ± 9.57 | – | – |
| CCCC(C)=O [2-Pentanone] | – | – | – | solubility in water ([1]; in words): almost insoluble in water |
